The target of the test is T1, small-conductance Ca2+-activated K+ channels (SK channels, subtype 2) (Homo sapiens, UniProt Q9H2S1).
T1 construct: expressed in transfected cells; host or cells: HEK293
Description: whole-cell patch-clamp of ionic current through SK2 channels in HEK293 cells (SC100). In kind it is cell-based. The settings on record: whole-cell patch-clamp, HEK293 cells expressing SK2 channels; concentration that increases the basal current by 100%. The method, boiled down: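 Whole-cell patch-clamp recording of current in HEK293 cells expressing SK2 channels. SC100 is the compound concentration that increases basal current by 100%.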

The source of these data is patent US10774064B2 (Cadent Therapeutics, Inc., priority 2016, dated 2020).

As to `CC(F)c1ccn(-c2nc(NC3CCC(F)(F)CC3)cc(N3CCOCC3)n2)n1` (centres unmarked) [IN11243-041-P1], the “SC100 (μM)” value was “+++ (+++ means <200 nM)”.
Turning to `Cc1cc(NC2CCC(F)(F)CC2)nc(-n2ccc(C(C)F)n2)n1` (centres unmarked) [IN11243-042-P1, N-(4,4-difluorocyclohexyl)-2-(3-(1-fluoroethyl)-1H-pyrazol-1-yl)-6-methylpyrimidin-4-amine], the “SC100 (μM)” value is on record as “++ (++ means 200 nM-1000 nM)”.
Consider `CC(F)(F)c1ccn(-c2nc(NC3CCC(F)(F)CC3)cc(N3CCOCC3)n2)n1` [IN11243-050-P2], for which the “SC100 (μM)” value is given as “++ (++ means 200 nM-1000 nM)”.
With `Cc1cc(NC2CCC(F)(F)CC2)nc(-n2ccc(C3=CCCC3)n2)n1` [IN11250-007-P1, 2-(3-(cyclopent-1-en-1-yl)-1H-pyrazol-1-yl)-N-(4,4-difluorocyclohexyl)-6-methylpyrimidin-4-amine], the “SC100 (μM)” value was “+ (+ means >1 uM)”.
On to `Cc1cc(NC2CCC(F)(F)CC2)nc(-n2ccc(C3CCCC3)n2)n1` [IN11250-017-P1, 2-(3-cyclopentyl-1H-pyrazol-1-yl)-N-(4,4-difluorocyclohexyl)-6-methylpyrimidin-4-amine], for which the “SC100 (μM)” value is “+ (+ means >1 uM)”.
Regarding `C=Cc1ccn(-c2nc(C)cc(NC3CCC(F)(F)CC3)n2)n1` [IN11250-031-P1], the “SC100 (μM)” value is recorded as “+ (+ means >1 uM)”.
As for `Cc1ccn(-c2nc(NCCO)cc(NC3CCC(F)(F)CC3)n2)n1` [IN11250-032-P1], the entry is “++ (++ means 200 nM-1000 nM)”; as for `Cc1cc(NC2CCC(F)(F)CC2)nc(-n2ccc(C3(O)CC3)n2)n1` [IN11251-011-P1, 1-(1-(4-((4,4-difluorocyclohexyl)amino)-6-methylpyrimidin-2-yl)-1H-pyrazol-3-yl)cyclopropan-1-ol], “+ (+ means >1 uM)”.
With `CCC(O)c1ccn(-c2nc(C)cc(NC3CCC(F)(F)CC3)n2)n1` (centres unmarked) [IN11251-011-P2, 1-(1-(4-((4,4-difluorocyclohexyl)amino)-6-methylpyrimidin-2-yl)-1H-pyrazol-3-yl)propan-1-ol], the “SC100 (μM)” value is “+ (+ means >1 uM)”.
Turning to `Cc1cc(NC2CCC(F)(F)CC2)nc(-n2ccc(C(=O)OC(C)C)n2)n1` [IN11251-020-P1, isopropyl 1-(4-((4,4-difluorocyclohexyl)amino)-6-methylpyrimidin-2-yl)-1H-pyrazole-3-carboxylate], the “SC100 (μM)” value is listed as “+ (+ means >1 uM)”.
Turning to `COC(=O)N1CCC(O)(c2cc(NC3CCC(F)(F)CC3)nc(-n3ccc(C)n3)c2)C1` (centres unmarked) [IN11251-035-P1, methyl 3-(2-((4,4-difluorocyclohexyl)amino)-6-(3-methyl-1H-pyrazol-1-yl)pyridin-4-yl)-3-hydroxypyrrolidine-1-carboxylate], the “SC100 (μM)” value is given as “++ (++ means 200 nM-1000 nM)”.
Consider `COC(=O)N(C)Cc1cc(NC2CCC(F)(F)CC2)nc(-c2nc(C)cs2)c1` [IN11251-043-P1], for which the “SC100 (μM)” value is recorded as “++ (++ means 200 nM-1000 nM)”.
`Cc1cc(NC2CCC(F)(F)CC2)nc(CO)n1` [IN11273-001-P1, (4-((4,4-difluorocyclohexyl)amino)-6-methylpyrimidin-2-yl) methanol]: the “SC100 (μM)” value is listed as “+ (+ means >1 uM)”.
As for `COC(=O)c1nc(C)cc(NC2CCC(F)(F)CC2)n1` [IN11273-006-P1, methyl 4-((4,4-difluorocyclohexyl)amino)-6-methylpyrimidine-2-carboxylate], the entry is “+ (+ means >1 uM)”.
With `Cc1cc(NC2CCC(F)(F)CC2)nc(Cn2ccc(C)n2)n1` [IN11273-015-P1, N-(4,4-difluorocyclohexyl)-6-methyl-2-((3-methyl-1H-pyrazol-1-yl)methyl)pyrimidin-4-amine], the “SC100 (μM)” value was “+ (+ means >1 uM)”.
On to `Cc1cc(NC2CCC(F)(F)CC2)nc(Cn2nccc2C)n1` [IN11273-015-P2, N-(4,4-difluorocyclohexyl)-6-methyl-2-((5-methyl-1H-pyrazol-1-yl)methyl)pyrimidin-4-amine], for which the “SC100 (μM)” value is “+ (+ means >1 uM)”.
Turning to `Cc1cc(NC2CCC(F)(F)CC2)nc(CC#N)n1` [IN11273-018-P1, 2-(4-((4,4-difluorocyclohexyl)amino)-6-methylpyrimidin-2-yl) acetonitrile], the “SC100 (μM)” value is “+ (+ means >1 uM)”.
With `Cc1ccn(-c2nc(NC3CCC(F)(F)CC3)cc(N3CC(=O)N(C)C(=O)C3)n2)n1` [IN11288-005-P1], the “SC100 (μM)” value was “++ (++ means 200 nM-1000 nM)”.
Turning to `Cc1ccn(-c2nc(C#N)cc(NC3CCC(F)(F)CC3)n2)n1` [IN11288-025-P1], the “SC100 (μM)” value is listed as “+ (+ means >1 uM)”.
As for `OCCN(CCO)c1cc(NC2CCC(F)(F)CC2)nc(-n2ccc(CO)n2)n1` [IN11337-019-P1, 2,2′-((6-((4,4-difluorocyclohexyl)amino)-2-(3-(hydroxymethyl)-1H-pyrazol-1-yl)pyrimidin-4-yl)azanediyl)bis-(ethan-1-ol)], the entry is “+ (+ means >1 uM)”; as for `Cc1cn(-c2cc(OC3COC3)cc(NC3CCC(F)(F)CC3)n2)nc1CF` [NSSy5615, N-(4,4-difluorocyclohexyl)-6-(3-(fluoromethyl)-4-methyl-1H-pyrazol-1-yl)-4-(oxetan-3-yloxy)pyridin-2-amine], “++ (++ means 200 nM-1000 nM)”.
Consider `FCc1ccn(-c2nc(NC3CCC(F)(F)CC3)cc(OC3CC(F)C3)n2)n1` (centres unmarked) [NSSy5618, N-(4,4-difluorocyclohexyl)-6-(3-fluorocyclobutoxy)-2-(3-(fluoromethyl)-1H-pyrazol-1-yl)pyrimidin-4-amine], for which the “SC100 (μM)” value was “+ (+ means >1 uM)”.
As for `FCc1ccn(-c2nc(NC3CCC(F)(F)CC3)cc(OC3CC(F)(F)C3)n2)n1` [NSSy5619, 6-(3,3-difluorocyclobutoxy)-N-(4,4-difluorocyclohexyl)-2-(3-(fluoromethyl)-1H-pyrazol-1-yl)pyrimidin-4-amine], the “SC100 (μM)” value is “+ (+ means >1 uM)”.
For `CC(C)C(=O)NCc1cc(NC2CCC(F)(F)CC2)nc(-n2ccc(CF)n2)c1` [NSSy5620, N-((2-((4,4-difluorocyclohexyl)amino)-6-(3-(fluoromethyl)-1H-pyrazol-1-yl)pyridin-4-yl)methyl)isobutyramide], the “SC100 (μM)” value is “++ (++ means 200 nM-1000 nM)”.
As for `CC(=O)NCc1cc(NC2CCC(F)(F)CC2)nc(-n2cc(C)c(CF)n2)c1` [NSSy5622, N-((2-((4,4-difluorocyclohexyl)amino)-6-(3-(fluoromethyl)-4-methyl-1H-pyrazol-1-yl)pyridin-4-yl)methyl)acetamide], the entry is “++ (++ means 200 nM-1000 nM)”; as for `Cn1cnc(COc2cc(NC3CCC(F)(F)CC3)nc(-c3nc(CF)cs3)n2)n1` [NSSy5624, N-(4,4-difluorocyclohexyl)-2-(4-(fluoromethyl)thiazol-2-yl)-6-((1-methyl-1H-1,2,4-triazol-3-yl)methoxy)pyrimidin-4-amine], “+ (+ means >1 uM)”; as for `Cc1csc(-c2nc(NC3CCC(F)(F)CC3)cc(OCc3cnnn3C)n2)n1` [NSSy5625], “+++ (+++ means <200 nM)”.
Turning to `Cc1csc(-c2nc(NC3CCC(F)(F)CC3)cc(OC3CN(C(=O)C(C)C)C3)n2)n1` [NSSy5629], the “SC100 (μM)” value is recorded as “+++ (+++ means <200 nM)”.
For the compound `Cc1ccn(-c2nc(NC3CCC(F)(F)CC3)cc(N3CC4(COC4)C3)n2)n1` [NSSy5631], the “SC100 (μM)” value is on record as “++ (++ means 200 nM-1000 nM)”.
Take `COC(=O)NCc1cc(NC2CCC(F)(F)CC2)nc(-n2ccc(C)n2)c1` [NSSy5635]: the “SC100 (μM)” value was “++ (++ means 200 nM-1000 nM)”.
On to `Cc1ccn(-c2cc(CNC(=O)C(C)C)cc(NC3CCC(F)(F)CC3)n2)n1` [NSSy5637], for which the “SC100 (μM)” value is “++ (++ means 200 nM-1000 nM)”.
Take `Cc1ccn(-c2cc(NC3CCC(F)(F)CC3)cc(OCc3ncnn3C)n2)n1` [NSSy5638, N-(4,4-difluorocyclohexyl)-2-((1-methyl-1H-1,2,4-triazol-5-yl)methoxy)-6-(3-methyl-1H-pyrazol-1-yl)pyridin-4-amine]: the “SC100 (μM)” value is “++ (++ means 200 nM-1000 nM)”.
`CC(=O)NCc1cc(NC2CCC(F)(F)CC2)nc(-c2nc(C)cs2)c1` [NSSy5640, N-((2-((4,4-difluorocyclohexyl)amino)-6-(4-methylthiazol-2-yl)pyridin-4-yl)methyl)acetamide]: the “SC100 (μM)” value is reported as “++ (++ means 200 nM-1000 nM)”.
As to `Cc1ccn(-c2cc(OCc3ncn(C)n3)cc(NC3CCC(F)(F)CC3)n2)n1` [NSSy5641], the “SC100 (μM)” value is “++ (++ means 200 nM-1000 nM)”.
With `Cc1ccn(-c2cc(OCc3cnnn3C)cc(NC3CCC(F)(F)CC3)n2)n1` [NSSy5643], the “SC100 (μM)” value is “++ (++ means 200 nM-1000 nM)”.
Consider `CC(=O)NCc1cc(NC2CCC(F)(F)CC2)nc(-c2nc(CF)cs2)c1` [NSSy5644, N-((2-((4,4-difluorocyclohexyl)amino)-6-(4-(fluoromethyl)thiazol-2-yl)pyridin-4-yl)methyl) acetamide], for which the “SC100 (μM)” value is recorded as “++ (++ means 200 nM-1000 nM)”.
As for `Cc1cc(C)n(-c2cc(Cc3ncco3)cc(NC3CCC(F)(F)CC3)n2)n1` [NSSy5645, N-(4,4-difluorocyclohexyl)-6-(3,5-dimethyl-1H-pyrazol-1-yl)-4-(oxazol-2-ylmethyl)pyridin-2-amine], the entry is “++ (++ means 200 nM-1000 nM)”; as for `Cc1csc(-c2cc(N3CCOCC3)cc(NC3CCC(F)(F)CC3)n2)n1` [NSSy5646], “++ (++ means 200 nM-1000 nM)”.
Regarding `Cc1ccn(-c2nc(NC3CCC(F)(F)CC3)cc(OC3CC(F)C3)n2)n1` (centres unmarked) [NSSy5647, N-(4,4-difluorocyclohexyl)-6-(3-fluorocyclobutoxy)-2-(3-methyl-1H-pyrazol-1-yl)pyrimidin-4-amine], the “SC100 (μM)” value is recorded as “++ (++ means 200 nM-1000 nM)”.
With `Cc1ccn(-c2nc(NC3CCC(F)(F)CC3)cc(OC3CNC3)n2)n1` [NSSy5648, 6-(azetidin-3-yloxy)-N-(4,4-difluorocyclohexyl)-2-(3-methyl-1H-pyrazol-1-yl)pyrimidin-4-amine], the “SC100 (μM)” value is on record as “+ (+ means >1 uM)”.
For the compound `Cc1csc(-c2nc(NC3CCC(F)(F)CC3)cc(OCc3nnc(C)o3)n2)n1` [NSSy5651], the “SC100 (μM)” value is “++ (++ means 200 nM-1000 nM)”.
